Test results published in ChEMBL document CHEMBL4024706 (Eur J Med Chem, 2017).

How the values were obtained:
[1] = system: Mast/stem cell growth factor receptor Kit (Homo sapiens), P10721 [D816H]; assay: Inhibition of human partial length KIT D816H mutant (I571 to D952 residues) expressed in mammalian expression system assessed as residual activity at 1 uM by Kinomescan method relative to control
[2] = target: Phosphorylase b kinase gamma catalytic chain, skeletal muscle/heart isoform (Homo sapiens) (UniProt Q16816); assay: Inhibition of wild-type human full length PHKG1 (M1 to Y387 residues) expressed in bacterial expression system assessed as residual activity at 1 uM by Kinomescan method relative to control
[3] = target: Hormonally up-regulated neu tumor-associated kinase (Homo sapiens) (UniProt P57058); assay: Inhibition of wild-type human partial length HUNK (A31 to K354 residues) expressed in bacterial expression system assessed as residual activity at 1 uM by Kinomescan method relative to control
[4] = AUC (0 to t) in Sprague-Dawley rat at 1 mg/kg, iv by LC-MS/MS method; type: ADME, organism-based; settings: in vivo
[5] = target: Ribosomal protein S6 kinase alpha-1 (Homo sapiens) (UniProt Q15418); assay: Inhibition of wild-type human partial length N-terminal RSK1 Kinase domain 1 (M1 to E388 residues) expressed in bacterial expression system assessed as residual activity at 1 uM by Kinomescan method relative to control
[6] = target: Muscle, skeletal receptor tyrosine-protein kinase (Homo sapiens) (UniProt O15146); assay: Inhibition of wild-type human partial length MUSK (M553 to V869 residues) expressed in bacterial expression system assessed as residual activity at 1 uM by Kinomescan method relative to control
[7] = target: NT-3 growth factor receptor (Homo sapiens) (UniProt Q16288); assay: Inhibition of wild-type human partial length TRKC (Q531 to G825 residues) expressed in mammalian expression system assessed as residual activity at 1 uM by Kinomescan method relative to control
[8] = AUC (0 to t) in Sprague-Dawley rat at 10 mg/kg, po by LC-MS/MS method; type: ADME, organism-based; settings: in vivo
[9] = target: Tyrosine-protein kinase BTK (Homo sapiens, UniProt Q06187); assay: Reversible inhibition of full length recombinant human N-terminal His tagged […] expressed in baculovirus infected Sf9 insect cells using poly (Glu,Tyr)4:1 as substrate pretreated for 2 to 60 mins followed by substrate addition after 1 hr by ADP-Glo luminescence assay
[10] = MRT (0 to t) in Sprague-Dawley rat at 10 mg/kg, po by LC-MS/MS method; type: ADME, organism-based; settings: in vivo
[11] = target: Myosin light chain kinase, smooth muscle (Homo sapiens) (UniProt Q15746); assay: Inhibition of wild-type human full length MYLK (M854 to E1845 residues) expressed in mammalian expression system assessed as residual activity at 1 uM by Kinomescan method relative to control
U2932 = assay: Cell cycle arrest in human U2932 cells assessed as increase in accumulation at G0/G1 phase after 48 hrs by propidium iodide/RNase staining based flow cytometric method; type: functional
[12] = target: Angiopoietin-1 receptor (Homo sapiens) (UniProt Q02763); assay: Inhibition of wild-type human partial length TIE2 (N804 to T1112 residues) expressed in bacterial expression system assessed as residual activity at 1 uM by Kinomescan method relative to control
[13] = target: Mitogen-activated protein kinase 12 (Homo sapiens) (UniProt P53778); assay: Inhibition of wild-type human full length p38-gamma (M1 to L367 residues) expressed in mammalian expression system assessed as residual activity at 1 uM by Kinomescan method relative to control
[14] = target: Mitogen-activated protein kinase kinase kinase 6 (Homo sapiens) (UniProt O95382); assay: Inhibition of wild-type human partial length ASK2 (M278 to R972 residues) expressed in mammalian expression system assessed as residual activity at 1 uM by Kinomescan method relative to control
[15] = target: Tyrosine-protein kinase BTK (Homo sapiens, UniProt Q06187, C481S); assay: Irreversible inhibition of recombinant full length 3'-FLAG-tagged BTK C481S mutant (unknown origin) expressed in HEK293T cells assessed as reduction in Y223 phosphorylation measured after 4 hrs by Western blot method; type: cell-based
[16] = target: Serine/threonine-protein kinase PAK 4 (Homo sapiens) (UniProt O96013); assay: Inhibition of wild-type human partial length PAK4 (Q144 to R438 residues) expressed in bacterial expression system assessed as residual activity at 1 uM by Kinomescan method relative to control
[17] = target: Serine/threonine-protein kinase TNNI3K (Homo sapiens) (UniProt Q59H18); assay: Inhibition of wild-type human full length TNNI3K (M1 to S835 residues) expressed in bacterial expression system assessed as residual activity at 1 uM by Kinomescan method relative to control
[18] = target: Serine/threonine-protein kinase 26 (Homo sapiens) (UniProt Q9P289); assay: Inhibition of wild-type human full length MST4 (M1 to P416 residues) expressed in mammalian expression system assessed as residual activity at 1 uM by Kinomescan method relative to control
[19] = target: Platelet-derived growth factor receptor alpha (Homo sapiens) (UniProt P16234); assay: Inhibition of wild-type human partial length PDGFRA (V575 to D1002 residues) expressed in mammalian expression system assessed as residual activity at 1 uM by Kinomescan method relative to control
[20] = target: Serine/threonine-protein kinase MARK1 (Homo sapiens) (UniProt Q9P0L2); assay: Inhibition of wild-type human partial length MARK1 (Q30 to T341 residues) expressed in bacterial expression system assessed as residual activity at 1 uM by Kinomescan method relative to control
[21] = target: Serine/threonine-protein kinase PAK 1 (Homo sapiens) (UniProt Q13153); assay: Inhibition of wild-type human partial length PAK1 (S149 to H545 residues) expressed in bacterial expression system assessed as residual activity at 1 uM by Kinomescan method relative to control
[22] = target: Tyrosine-protein kinase ABL1 (Homo sapiens) (UniProt P00519); assay: Inhibition of wild-type human phosphorylated ABL1 (S229 to K512 residues) expressed in mammalian expression system assessed as residual activity at 1 uM by Kinomescan method relative to control
[23] = target: Protein kinase C iota type (Homo sapiens) (UniProt P41743); assay: Inhibition of wild-type human partial length PRKCI (H215 to V587 residues) expressed in mammalian expression system assessed as residual activity at 1 uM by Kinomescan method relative to control
[24] = target: Tyrosine-protein kinase Fes/Fps (Homo sapiens) (UniProt P07332); assay: Inhibition of wild-type human partial length FES (I527 to R822 residues) expressed in bacterial expression system assessed as residual activity at 1 uM by Kinomescan method relative to control
[25] = MRT (0 to t) in Sprague-Dawley rat at 1 mg/kg, iv by LC-MS/MS method; type: ADME, organism-based; settings: in vivo
[26] = target: Phosphatidylinositol 4,5-bisphosphate 3-kinase catalytic subunit gamma isoform (Homo sapiens) (UniProt P48736); assay: Inhibition of wild-type human partial length PIK3CG (S144 to A1102 residues) expressed in mammalian expression system assessed as residual activity at 1 uM by Kinomescan method relative to control

Chain of Myosin light chain kinase, smooth muscle (Homo sapiens) (Q15746 whole entry, the tested form may be a part): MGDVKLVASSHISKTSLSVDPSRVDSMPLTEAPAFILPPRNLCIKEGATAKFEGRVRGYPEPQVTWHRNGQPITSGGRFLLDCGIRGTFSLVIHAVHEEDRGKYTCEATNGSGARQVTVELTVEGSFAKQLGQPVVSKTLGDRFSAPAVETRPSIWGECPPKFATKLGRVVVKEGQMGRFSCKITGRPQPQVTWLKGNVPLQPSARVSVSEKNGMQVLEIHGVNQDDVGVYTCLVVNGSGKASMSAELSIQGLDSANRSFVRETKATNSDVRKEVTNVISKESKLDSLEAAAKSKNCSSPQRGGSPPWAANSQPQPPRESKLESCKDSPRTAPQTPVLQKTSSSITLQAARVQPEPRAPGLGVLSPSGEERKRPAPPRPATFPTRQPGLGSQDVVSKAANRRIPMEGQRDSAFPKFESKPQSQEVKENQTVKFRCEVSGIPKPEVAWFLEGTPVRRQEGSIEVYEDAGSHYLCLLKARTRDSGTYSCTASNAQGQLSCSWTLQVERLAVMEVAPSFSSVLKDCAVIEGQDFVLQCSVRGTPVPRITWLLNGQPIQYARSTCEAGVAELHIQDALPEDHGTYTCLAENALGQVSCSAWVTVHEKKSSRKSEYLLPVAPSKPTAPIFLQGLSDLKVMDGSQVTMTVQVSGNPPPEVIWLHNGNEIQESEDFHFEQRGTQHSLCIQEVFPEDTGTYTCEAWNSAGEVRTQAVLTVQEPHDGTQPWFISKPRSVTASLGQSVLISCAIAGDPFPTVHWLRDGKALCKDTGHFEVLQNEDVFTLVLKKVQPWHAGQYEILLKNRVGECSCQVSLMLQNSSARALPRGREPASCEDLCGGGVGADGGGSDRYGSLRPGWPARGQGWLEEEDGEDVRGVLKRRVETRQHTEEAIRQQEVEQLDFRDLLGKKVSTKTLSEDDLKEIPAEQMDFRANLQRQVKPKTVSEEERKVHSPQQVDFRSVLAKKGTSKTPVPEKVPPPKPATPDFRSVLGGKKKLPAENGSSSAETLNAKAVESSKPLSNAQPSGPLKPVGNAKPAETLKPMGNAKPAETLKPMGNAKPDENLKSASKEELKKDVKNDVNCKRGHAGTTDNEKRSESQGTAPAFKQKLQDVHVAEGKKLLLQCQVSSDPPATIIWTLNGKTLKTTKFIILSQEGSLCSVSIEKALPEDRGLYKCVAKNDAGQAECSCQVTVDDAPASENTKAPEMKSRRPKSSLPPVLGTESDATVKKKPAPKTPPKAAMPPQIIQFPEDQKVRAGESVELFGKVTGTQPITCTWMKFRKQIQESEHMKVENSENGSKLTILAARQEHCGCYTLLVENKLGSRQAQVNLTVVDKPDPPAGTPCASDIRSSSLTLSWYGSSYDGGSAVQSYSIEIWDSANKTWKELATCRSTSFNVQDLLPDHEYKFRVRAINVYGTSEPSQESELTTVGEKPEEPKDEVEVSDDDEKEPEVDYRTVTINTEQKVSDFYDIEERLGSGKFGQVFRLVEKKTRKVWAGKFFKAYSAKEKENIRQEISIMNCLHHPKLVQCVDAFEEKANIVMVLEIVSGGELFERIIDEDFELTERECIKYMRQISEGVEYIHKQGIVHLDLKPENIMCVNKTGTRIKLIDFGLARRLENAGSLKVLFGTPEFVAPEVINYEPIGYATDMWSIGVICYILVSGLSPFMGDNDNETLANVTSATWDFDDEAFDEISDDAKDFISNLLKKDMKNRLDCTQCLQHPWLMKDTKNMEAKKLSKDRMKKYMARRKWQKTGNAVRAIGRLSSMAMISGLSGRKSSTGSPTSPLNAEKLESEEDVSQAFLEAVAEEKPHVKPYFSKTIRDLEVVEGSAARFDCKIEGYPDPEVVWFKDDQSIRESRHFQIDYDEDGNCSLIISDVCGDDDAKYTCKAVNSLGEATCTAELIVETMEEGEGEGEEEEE
Chain of Mitogen-activated protein kinase 12 (Homo sapiens) (P53778 whole entry, the tested form may be a part): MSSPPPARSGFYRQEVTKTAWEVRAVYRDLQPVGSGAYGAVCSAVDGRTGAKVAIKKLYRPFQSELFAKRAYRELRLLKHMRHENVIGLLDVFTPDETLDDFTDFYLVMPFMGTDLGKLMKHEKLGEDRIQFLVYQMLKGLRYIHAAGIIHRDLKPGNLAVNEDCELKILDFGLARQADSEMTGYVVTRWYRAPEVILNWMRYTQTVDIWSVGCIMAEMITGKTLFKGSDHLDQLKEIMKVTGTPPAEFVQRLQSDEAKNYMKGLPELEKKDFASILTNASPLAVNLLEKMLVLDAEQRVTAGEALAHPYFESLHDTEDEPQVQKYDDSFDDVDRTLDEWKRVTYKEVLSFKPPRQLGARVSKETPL
Chain of Tyrosine-protein kinase ABL1 (Homo sapiens) (P00519 whole entry, the tested form may be a part): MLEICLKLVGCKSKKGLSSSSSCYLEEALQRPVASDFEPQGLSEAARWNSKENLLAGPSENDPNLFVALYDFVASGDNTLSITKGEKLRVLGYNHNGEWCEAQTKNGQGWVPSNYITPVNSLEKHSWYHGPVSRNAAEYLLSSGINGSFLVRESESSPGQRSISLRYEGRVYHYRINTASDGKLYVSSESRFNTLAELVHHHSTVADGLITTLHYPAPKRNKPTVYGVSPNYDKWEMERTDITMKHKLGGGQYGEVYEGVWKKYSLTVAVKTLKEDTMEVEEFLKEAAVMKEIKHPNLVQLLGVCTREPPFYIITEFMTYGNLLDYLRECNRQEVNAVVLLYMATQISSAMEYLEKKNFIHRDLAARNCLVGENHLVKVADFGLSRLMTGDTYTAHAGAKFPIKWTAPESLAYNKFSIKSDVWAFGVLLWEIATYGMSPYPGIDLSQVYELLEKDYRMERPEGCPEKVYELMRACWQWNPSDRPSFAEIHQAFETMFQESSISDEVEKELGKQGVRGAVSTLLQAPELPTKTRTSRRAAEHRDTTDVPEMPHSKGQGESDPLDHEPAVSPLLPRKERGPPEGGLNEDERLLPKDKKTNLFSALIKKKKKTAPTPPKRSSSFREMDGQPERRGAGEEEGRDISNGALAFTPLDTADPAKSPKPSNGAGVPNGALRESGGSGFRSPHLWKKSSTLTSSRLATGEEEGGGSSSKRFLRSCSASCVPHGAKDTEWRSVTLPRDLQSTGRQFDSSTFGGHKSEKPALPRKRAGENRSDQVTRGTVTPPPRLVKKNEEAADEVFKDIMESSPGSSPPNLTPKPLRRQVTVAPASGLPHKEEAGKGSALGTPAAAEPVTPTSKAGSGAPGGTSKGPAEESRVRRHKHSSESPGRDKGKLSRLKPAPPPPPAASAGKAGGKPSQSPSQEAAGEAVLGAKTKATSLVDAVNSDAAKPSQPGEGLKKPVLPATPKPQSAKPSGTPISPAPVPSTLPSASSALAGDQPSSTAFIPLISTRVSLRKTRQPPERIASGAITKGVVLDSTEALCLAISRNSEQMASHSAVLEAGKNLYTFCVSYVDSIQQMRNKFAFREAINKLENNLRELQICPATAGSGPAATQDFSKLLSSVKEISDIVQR
Chain of Serine/threonine-protein kinase PAK 4 (Homo sapiens) (O96013 whole entry, looked up, the tested form may be a part): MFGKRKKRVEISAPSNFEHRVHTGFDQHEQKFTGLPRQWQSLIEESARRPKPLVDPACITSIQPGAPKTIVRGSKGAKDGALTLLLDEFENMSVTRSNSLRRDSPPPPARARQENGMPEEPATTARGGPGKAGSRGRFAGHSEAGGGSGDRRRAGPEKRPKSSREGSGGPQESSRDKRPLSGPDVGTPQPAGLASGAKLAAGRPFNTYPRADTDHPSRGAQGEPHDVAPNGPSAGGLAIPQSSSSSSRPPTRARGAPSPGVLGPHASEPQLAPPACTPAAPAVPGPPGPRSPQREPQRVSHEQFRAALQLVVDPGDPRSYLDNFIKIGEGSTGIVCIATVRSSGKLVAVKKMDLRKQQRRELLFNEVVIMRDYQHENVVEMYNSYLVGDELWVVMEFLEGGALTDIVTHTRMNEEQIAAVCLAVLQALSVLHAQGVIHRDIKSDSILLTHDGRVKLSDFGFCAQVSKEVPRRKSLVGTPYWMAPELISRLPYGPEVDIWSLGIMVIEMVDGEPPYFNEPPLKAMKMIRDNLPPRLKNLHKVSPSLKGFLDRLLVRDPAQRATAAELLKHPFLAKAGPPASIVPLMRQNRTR
Chain of Protein kinase C iota type (Homo sapiens) (P41743 whole entry, the tested form may be a part): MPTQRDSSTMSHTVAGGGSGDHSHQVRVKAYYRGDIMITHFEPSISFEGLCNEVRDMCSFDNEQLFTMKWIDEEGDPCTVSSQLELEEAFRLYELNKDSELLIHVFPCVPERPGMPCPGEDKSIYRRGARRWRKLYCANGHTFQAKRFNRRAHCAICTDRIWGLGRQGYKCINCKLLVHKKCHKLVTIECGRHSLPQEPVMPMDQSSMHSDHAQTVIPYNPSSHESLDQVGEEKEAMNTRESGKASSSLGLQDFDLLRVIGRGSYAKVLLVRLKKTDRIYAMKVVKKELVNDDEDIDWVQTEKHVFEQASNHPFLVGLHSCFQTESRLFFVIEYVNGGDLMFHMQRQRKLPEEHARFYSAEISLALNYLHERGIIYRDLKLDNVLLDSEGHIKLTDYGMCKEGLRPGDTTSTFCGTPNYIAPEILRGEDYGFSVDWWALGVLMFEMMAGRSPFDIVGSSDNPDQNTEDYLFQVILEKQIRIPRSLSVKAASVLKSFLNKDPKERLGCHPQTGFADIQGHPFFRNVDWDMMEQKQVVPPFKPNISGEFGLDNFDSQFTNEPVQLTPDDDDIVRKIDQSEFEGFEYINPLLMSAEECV
Chain of Serine/threonine-protein kinase 26 (Homo sapiens) (Q9P289 2-416 limits assumed): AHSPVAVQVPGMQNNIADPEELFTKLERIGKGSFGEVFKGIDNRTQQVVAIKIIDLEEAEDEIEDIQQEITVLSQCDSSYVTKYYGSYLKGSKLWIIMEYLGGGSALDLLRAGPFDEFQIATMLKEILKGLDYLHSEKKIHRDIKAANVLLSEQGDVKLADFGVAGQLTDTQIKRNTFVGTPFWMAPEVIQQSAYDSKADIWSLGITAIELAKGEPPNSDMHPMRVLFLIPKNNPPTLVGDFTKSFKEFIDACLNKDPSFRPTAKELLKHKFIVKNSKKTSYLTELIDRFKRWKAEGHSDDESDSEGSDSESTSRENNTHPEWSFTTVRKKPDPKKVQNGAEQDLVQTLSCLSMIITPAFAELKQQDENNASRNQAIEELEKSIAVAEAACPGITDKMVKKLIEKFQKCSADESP

C=CC(=O)Nc1cc(Nc2cc(-c3cccc(NC(=O)c4ccc(C(C)(C)C)cc4)c3C)cn(C)c2=O)ccc1C(=O)N1CCOCC1
Activity [1]: 94%
Activity [2]: 100%
Activity [3]: 77%
AUC(0-t) [4]: 182 ng·h/mL
Activity [5]: 87%
Activity [6]: 91%
Activity [7]: 76%
AUC(0-t) [8]: 22 ng·h/mL
Ki [9]: 8.9 nM
MRT last [10]: 81.6 min
Activity [11]: 100%
Activity (U2932): Dose-dependent effect
Activity [12]: 100%
Activity [13]: 100%
Activity [14]: 95%
EC50 [15]: > 100 nM
Activity [16]: 94%
Activity [17]: 37%
Activity [18]: 88%
Activity [19]: 100%
Activity [20]: 88%
Activity [21]: 90%
Activity [22]: 100%
Activity [23]: 100%
Activity [24]: 84%
MRT last [25]: 15.6 min
Activity [26]: 100%
